As usually defined, the DC50 is the midpoint of the concentration-degradation curve. Low values mean degradation at low concentration, high ones degradation only at high concentration.

The target in this test is T1, AR (Homo sapiens, UniProt P10275).
T1 construct: endogenous in cells; host or cells: VCaP cells
T1 sequence (P10275 1-920): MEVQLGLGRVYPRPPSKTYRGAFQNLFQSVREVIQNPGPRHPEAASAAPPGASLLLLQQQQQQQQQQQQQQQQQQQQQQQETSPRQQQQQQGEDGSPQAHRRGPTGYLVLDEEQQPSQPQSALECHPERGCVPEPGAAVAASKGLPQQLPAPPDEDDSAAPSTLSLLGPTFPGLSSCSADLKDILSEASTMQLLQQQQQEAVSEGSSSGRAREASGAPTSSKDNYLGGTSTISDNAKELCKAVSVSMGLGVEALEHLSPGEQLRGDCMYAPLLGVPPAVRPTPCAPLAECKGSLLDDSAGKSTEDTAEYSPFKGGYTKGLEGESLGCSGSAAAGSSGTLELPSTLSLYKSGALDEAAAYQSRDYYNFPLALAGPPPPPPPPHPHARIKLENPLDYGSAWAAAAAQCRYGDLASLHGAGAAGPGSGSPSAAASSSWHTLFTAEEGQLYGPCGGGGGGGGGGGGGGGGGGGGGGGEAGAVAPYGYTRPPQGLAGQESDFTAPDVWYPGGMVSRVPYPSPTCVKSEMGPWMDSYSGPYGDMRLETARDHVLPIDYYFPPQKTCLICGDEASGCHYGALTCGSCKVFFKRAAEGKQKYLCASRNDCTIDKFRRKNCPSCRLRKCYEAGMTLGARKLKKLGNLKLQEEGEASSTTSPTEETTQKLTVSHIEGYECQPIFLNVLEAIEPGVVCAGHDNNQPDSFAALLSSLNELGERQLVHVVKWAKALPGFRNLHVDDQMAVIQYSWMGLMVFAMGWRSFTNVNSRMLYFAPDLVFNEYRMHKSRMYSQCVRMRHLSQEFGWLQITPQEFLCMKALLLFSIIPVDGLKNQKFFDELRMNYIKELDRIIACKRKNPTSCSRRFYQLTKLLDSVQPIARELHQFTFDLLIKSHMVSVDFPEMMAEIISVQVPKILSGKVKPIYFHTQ
In words: VCAP AR Degradation Assay. Format: cell-based. To be noted: VCaP cells, 24 h; for DC50: AR ELISA, concentration when AR level = 50% of DMSO control; for Ymin: lowest AR level normalized to DMSO control. Here is the method: VCAP AR Degradation Assay. Test compounds were pre-dispensed into a Corning CellBind 96-well clear bottom plate (Cat #3300) using an acoustic dispenser to make a 10-point concentration series at 1:3 dilution for each compound. The final top concentration of each compound was 5 μM. DMSO at a final concentration of 0.1% was used as a control. VCaP cells cultured in DMEM with 8% fetal bovine serum (FBS) were seeded at 50K cells per well in a 200 μL volume into the compound plate and incubated at 37° C. in a C02 incubator for 24 h. The medium was carefully removed from the cells and the plate was placed on ice. One hundred μL of ice-cold 1× cell lysis buffer from Cell Signaling Technologies (Cat #9803) was added to each well of the cells and the plate was incubated at 4° C. on a shaker for 1 h. Fifteen μL of cell lysate was used for AR ELISA detection using a PathScan Total Sandwich AR ELISA kit (Cell Signaling Technology, Cat #12580). AR levels in compound-treated wells were normalized to that of DMSO control and expressed as percent of control (PoC) (y). A Four Parameter Logistic Model (Sigmoidal Dose-Response Model) was used to determine the compound's DC50, and EC50, using the following equation: […]
The lowest measured AR level normalized to DMSO control in response to compound treatment, termed Y value, was used to characterize the compound-mediated AR degradation efficiency.
For orientation: An ELISA detects its analyte on a solid surface through an enzyme-linked reagent.

Structures are written as SMILES. Where a name gives a salt, the structure may show the parent alone. Some results are limits rather than exact numbers.

`C[C@@H]1CN(CCO[C@H]2CC[C@H](N3C(=S)N(c4cnc(C#N)c(Cl)c4)C(=O)C3(C)C)CC2)C[C@H](C)N1CC(=O)Nc1ccc(C2CCC(=O)NC2=O)cc1` (stereo partly drawn) [Cmpd 11, 2-((2R,6S)-4-(2-((trans-4-(3-(5-Chloro-6-cyanopyridin-3-yl)-5,5-dimethyl-4-oxo-2-thioxoimidazolidin-1-yl)cyclohexyl)oxy)ethyl)-2,6-dimethylpiperazin-1-yl)-N-(4-(2,6-dioxopiperidin-3-yl)phenyl)acetamide hydrochloride] registered a DC50 not above 5 nM. In addition, the Ymin result (class symbols) is reported as “** (20%<Y≤30%)”.

In the case of `C[C@@H]1C[C@H](OCCO[C@H]2CC[C@H](N3C(=S)N(c4ccc(C#N)c(C(F)(F)F)c4)C(=O)C3(C)C)CC2)C[C@H](C)N1CC(=O)Nc1ccc(C2CCC(=O)NC2=O)cc1` (stereo partly drawn) [Cmpd 42, 2-((2R,4r,6S)-4-(2-(((trans)-4-(3-(4-Cyano-3-(trifluoromethyl)phenyl)-5,5-dimethyl-4-oxo-2-thioxoimidazolidin-1-yl)cyclohexyl)oxy)ethoxy)-2,6-dimethylpiperidin-1-yl)-N-(4-(2,6-dioxopiperidin-3-yl)phenyl)acetamide], the DC50 lay within 5 to 15 nM. Moreover, the Ymin (given as numbers) is given as 19 % of DMSO control.

Regarding `CC1(C)C(=O)N(c2cnc(C#N)c(C(F)(F)F)c2)C(=S)N1[C@H]1CC[C@H](OCCN2CCN(CC(=O)Nc3ccc(C4CCC(=O)NC4=O)cc3)[C@@H](C(F)(F)F)C2)CC1` (stereo partly drawn) [Cmpd 28, 2-((R)-4-(2-(((trans)-4-(3-(6-Cyano-5-(trifluoromethyl)pyridin-3-yl)-5,5-dimethyl-4-oxo-2-thioxoimidazolidin-1-yl)cyclohexyl)oxy)ethyl)-2-(trifluoromethyl)piperazin-1-yl)-N-(4-(2,6-dioxopiperidin-3-yl)phenyl)acetamide], the DC50 is not above 5 nM. For the same compound, the Ymin (given as numbers) is given as 20 % of DMSO control.

The compound `C[C@@H]1CN(CCO[C@H]2CC[C@H](N3C(=S)N(c4ccc(C#N)c(C(F)(F)F)c4)C(=O)C3(C)C)CC2)C[C@H](C)N1CC(=O)Nc1ccc(N2CCC(=O)NC2=O)cc1` [Cmpd 1, 2-((2S,6R)-4-(2-((trans-4-(3-(4-Cyano-3-(trifluoromethyl)phenyl)-5,5-dimethyl-4-oxo-2-thioxoimidazolidin-1-yl)cyclohexyl)oxy)ethyl)-2,6-dimethylpiperazin-1-yl)-N-(4-(2,4-dioxotetrahydropyrimidin-1(2H)-yl)phenyl)acetamide hydrochloride] registered a DC50 of 100 to 10000 nM. Also, the Ymin entry (class symbols) was “*** (30%<Y<80%)”.

In turn, `C[C@@H]1CN(CCCO[C@H]2CC[C@H](N3C(=S)N(c4ccc(C#N)c(C(F)(F)F)c4)C(=O)C3(C)C)CC2)C[C@H](C)N1CC(=O)Nc1ccc(C2CCC(=O)NC2=O)cc1` (stereo partly drawn) [Cmpd 12, 2-((2R,6S)-4-(3-((trans-4-(3-(4-Cyano-3-(trifluoromethyl)phenyl)-5,5-dimethyl-4-oxo-2-thioxoimidazolidin-1-yl)cyclohexyl)oxy)propyl)-2,6-dimethylpiperazin-1-yl)-N-(4-(2,6-dioxopiperidin-3-yl)phenyl)acetamide hydrochloride] showed a DC50 not above 5 nM. Moreover, the Ymin result (class symbols) is given as “** (20%<Y≤30%)”.

`C[C@@H]1C[C@H](OCCC[C@H]2CC[C@H](N3C(=S)N(c4cnc(C#N)c(C(F)(F)F)c4)C(=O)C3(C)C)CC2)C[C@H](C)N1CC(=O)Nc1ccc(C2CCC(=O)NC2=O)cc1` (stereo partly drawn) [Cmpd 38, 2-((2R,4r,6S)-4-(3-((trans)-4-(3-(6-Cyano-5-(trifluoromethyl)pyridin-3-yl)-5,5-dimethyl-4-oxo-2-thioxoimidazolidin-1-yl)cyclohexyl)propoxy)-2,6-dimethylpiperidin-1-yl)-N-(4-(2,6-dioxopiperidin-3-yl)phenyl)acetamide] returned a DC50 of 5 to 15 nM. Moreover, the Ymin (given as numbers) is reported as 14 % of DMSO control.

The values are drawn from patent publication US20240368118A1, “CEREBLON BINDING COMPOUNDS, COMPOSITIONS THEREOF, AND METHODS OF TREATMENT THEREWITH” (CELGENE CORPORATION, priority 2021, published 2024).
